Laboratory results published in patent publication US8492328B2, “Biomarkers and methods for determining sensitivity to insulin growth factor-1 receptor modulators” (Bristol-Myers Squibb Company, priority 2007, dated 2013).
“Also recorded” adds a separate entry of the source.

Key:
[1] = tested on: IGF1R-sal, Colo205, RD1, HT-29, WiDr, GEO, MDA-PCa-2b, MCF-7, H3396, N-87, BT474, and SKBR3 cell lines; assay: Drug combination study (Dilution of Ratios) in cellular proliferation assays; conditions: for Combination Result: in vitro combination with compound 1, multiple cell lines, analyzed by Isobolograms
TC32 = assay: In vitro cellular proliferation assay ([3H]-thymidine incorporation); assay type: cell-based, human
Procedure: (§1) All pediatric sarcoma and neuroblastoma cell lines were obtained from Dr. Lee Helman at NIH. All cell lines were grown in RPMI medium supplemented with Glutamax (Gibco/Invitrogen #61870-036), 10% inactivated fetal bovine serum (Gibco/Invitrogen #16140-071), 10 mM Hepes, penicillin and streptomycin.
(§2) Cells were plated at an optimized density for each cell line per well in 96-well microtiter Falcon plates, incubated overnight, and then exposed to a serial dilution of drug. After 72 hours incubation with drug at 37° C., cells were pulsed with 4 μCi/ml [6-3H] thymidine (Amersham Pharmacia Biotech, UK) for 3 hours, trypsinized, harvested onto UniFilter-96, GF/B plates (PerkinElmer, Boston, Mass.) and scintillation was measured on a TopCount NXT (Packard, Conn.). Results were expressed as an IC50, which is the drug concentration required to inhibit cell proliferation by 50% to that of untreated control cells. The mean IC50 and standard deviation (SD) from multiple tests for each cell line were calculated.

JD = assay: as above; assay type: cell-based, human
Procedure: as §1, §2

CTR = assay: as above; assay type: cell-based, human
Procedure: as §1, §2

SK-NAS = assay: as above; assay type: cell-based, human
Procedure: as §1, §2

KAG = assay: as above; assay type: cell-based, human
Procedure: as §1, §2

Rh4 = assay: as above; assay type: cell-based, human
Procedure: as §1, §2

H2052 = assay: as above; assay type: cell-based, human
Procedure: as §1, §2

H513 = assay: as above; assay type: cell-based, human
Procedure: as §1, §2

SK-NSH = assay: as above; assay type: cell-based, human
Procedure: as §1, §2

HT1080/S = assay: as above; assay type: cell-based, human
Procedure: as §1, §2

5838 = assay: as above; assay type: cell-based, human
Procedure: as §1, §2

Rh36 = assay: as above; assay type: cell-based, human
Procedure: as §1, §2

LAN-1 = assay: as above; assay type: cell-based, human
Procedure: as §1, §2

IMR-32 = assay: as above; assay type: cell-based, human
Procedure: as §1, §2

Rh41 = assay: as above; assay type: cell-based, human
Procedure: as §1, §2

SW-684 = assay: as above; assay type: cell-based, human
Procedure: as §1, §2

RDES = assay: as above; assay type: cell-based, human
Procedure: as §1, §2

To184.T = assay: as above; assay type: cell-based, human
Procedure: as §1, §2

Rh1 = assay: as above; assay type: cell-based, human
Procedure: as §1, §2

LG = assay: as above; assay type: cell-based, human
Procedure: as §1, §2

SK-LMS-1 = assay: as above; assay type: cell-based, human
Procedure: as §1, §2

SA-4 = assay: as above; assay type: cell-based, human
Procedure: as §1, §2

SHSY5Y = assay: as above; assay type: cell-based, human
Procedure: as §1, §2

VW = assay: as above; assay type: cell-based, human
Procedure: as §1, §2

TC71 = assay: as above; assay type: cell-based, human
Procedure: as §1, §2

H211 = assay: as above; assay type: cell-based, human
Procedure: as §1, §2

HTB-92 = assay: as above; assay type: cell-based, human
Procedure: as §1, §2

H2595 = assay: as above; assay type: cell-based, human
Procedure: as §1, §2

ME = assay: as above; assay type: cell-based, human
Procedure: as §1, §2

SMILES: COc1cc([C@@H]2c3cc4c(cc3[C@@H](O[C@@H]3O[C@@H]5CO[C@@H](C)O[C@H]5[C@H](O)[C@H]3O)[C@H]3COC(=O)[C@H]23)OCO4)cc(OC)c1O [VP-16]
- Combination Result [1]: Additive

SMILES: CC(=O)O[C@H]1C(=O)[C@@]2(C)[C@H]([C@H](OC(=O)c3ccccc3)[C@]3(O)C[C@H](OC(=O)[C@H](O)[C@@H](NC(=O)c4ccccc4)c4ccccc4)C(C)=C1C3(C)C)[C@]1(OC(C)=O)CO[C@@H]1C[C@@H]2O [paclitaxel]
- Combination Result [1]: Additive

SMILES: C[C@@]1(C(=O)Nc2ccc(F)nc2)CCCN1c1nc(Nc2cc(C3CC3)[nH]n2)c2cccn2n1 [Compound 2, (2S)-1-(4-((5-cyclopropyl-1H-pyrazol-3-yl)amino)pyrrolo[2,1-f][1,2,4]triazin-2-yl)-N-(6-fluoro-3-pyridinyl)-2-methyl-2-pyrrolidinecarboxamide]
- Combination result of compound 2 ([1]; compound 2 with HER1/HER2 inhibitors or dasatinib, data not shown): synergy effects
- IC50 (TC32; Homo sapiens, TC-32, 72 h): 8.4 nM
- Sensitivity Classification (TC32; TC32 (Ewing)): S (“S” means sensitive)
- IC50 (JD; Homo sapiens, 72 h): 391 nM
- sensitivity/resistance classification in words (JD; JD): resistant
- Sensitivity Classification (JD; JD (Ewing)): R (“R” means resistant to the corresponding compounds.)
- sensitivity/resistance classification in words (CTR; CTR): sensitive
- Sensitivity Classification (CTR; CTR (Rhabdomyosarcoma)): S (“S” means sensitive)
- IC50 (CTR; Homo sapiens, 72 h): 253 nM
- IC50 (SK-NAS; Homo sapiens, SK-N-AS, 72 h): 497 nM
- sensitivity/resistance classification in words (SK-NAS; SK-NAS): resistant
- Sensitivity Classification (SK-NAS; SK-NAS (Neuroblastoma)): R (“R” means resistant to the corresponding compounds.)
- IC50 (KAG; Homo sapiens, 72 h): 1660 nM
- Sensitivity Classification (KAG; KAG (Ewing)): R (“R” means resistant to the corresponding compounds.)
- IC50 (Rh4; Homo sapiens, Rh4, 72 h): 4 nM
- Sensitivity Classification (Rh4; Rh4 (Rhabdomyosarcoma)): S (“S” means sensitive)
- Sensitivity Classification (H2052; H2052 (Melignant Pleural Mesothelioma)): R (“R” means resistant to the corresponding compounds.)
- IC50 (H2052; Homo sapiens, NCI-H2052, 72 h): 1050 nM
- Sensitivity Classification (H513; H513 (Melignant Pleural Mesothelioma)): R (“R” means resistant to the corresponding compounds.)
- IC50 (H513; Homo sapiens, H513, 72 h): 4450 nM
- IC50 (SK-NSH; Homo sapiens, SK-N-SH, 72 h): 139 nM
- Sensitivity Classification (SK-NSH; SK-NSH (Neuroblastoma)): S (“S” means sensitive)
- Sensitivity Classification (HT1080/S; HT1080/S (Fibrosarcoma)): R (“R” means resistant to the corresponding compounds.)
- IC50 (HT1080/S; Homo sapiens, HT-1080, 72 h): 531 nM
- Sensitivity Classification (5838; 5838 (Ewing)): S (“S” means sensitive)
- IC50 (5838; Homo sapiens, 72 h): 34 nM
- IC50 (Rh36; Homo sapiens, 72 h): 1430 nM
- Sensitivity Classification (Rh36; Rh36 (Rhabdomyosarcoma)): R (“R” means resistant to the corresponding compounds.)
- IC50 (LAN-1; Homo sapiens, LAN1, 72 h): 40 nM
- Sensitivity Classification (LAN-1; LAN-1 (Neuroblastoma)): S (“S” means sensitive)
- IC50 (IMR-32; Homo sapiens, IMR-32, 72 h): 261 nM
- Sensitivity Classification (IMR-32; IMR-32 (Neuroblastoma)): S (“S” means sensitive)
- IC50 (Rh41; Homo sapiens, Rh41, 72 h): 4.7 nM
- Sensitivity Classification (Rh41; Rh41 (Rhabdomyosarcoma)): S (“S” means sensitive)
- IC50 (SW-684; Homo sapiens, SW684, 72 h): 5000 nM
- Sensitivity Classification (SW-684; SW-684 (Fibrosarcoma)): R (“R” means resistant to the corresponding compounds.)
- IC50 (RDES; Homo sapiens, RD-ES, 72 h): 11.7 nM
- Sensitivity Classification (RDES; RDES (Ewing)): S (“S” means sensitive)
- IC50 (To184.T; Homo sapiens, 72 h): 470 nM
- Sensitivity Classification (To184.T; To184.T (Liposarcoma)): R (“R” means resistant to the corresponding compounds.)
- IC50 (Rh1; Homo sapiens, RH-1, 72 h): 26.7 nM
- Sensitivity Classification (Rh1; Rh1 (Rhabdomyosarcoma)): S (“S” means sensitive)
- IC50 (LG; Homo sapiens, 72 h): 37.5 nM
- Sensitivity Classification (LG; LG (Ewing)): S (“S” means sensitive)
- IC50 (SK-LMS-1; Homo sapiens, SK-LMS-1, 72 h): 687 nM
- Sensitivity Classification (SK-LMS-1; SK-LMS-1 (Leiomyosarcoma)): R (“R” means resistant to the corresponding compounds.)
- IC50 (SA-4; Homo sapiens, 72 h): 1300 nM
- Sensitivity Classification (SA-4; SA-4 (Liposarcoma)): R (“R” means resistant to the corresponding compounds.)
- IC50 (SHSY5Y; Homo sapiens, SH-SY5Y, 72 h): 106 nM
- Sensitivity Classification (SHSY5Y; SHSY5Y (Neuroblastoma)): S (“S” means sensitive)
- IC50 (VW; Homo sapiens, 72 h): 19 nM
- Sensitivity Classification (VW; VW (Ewing)): S (“S” means sensitive)
- IC50 (TC71; Homo sapiens, TC-71, 72 h): 14.3 nM
- Sensitivity Classification (TC71; TC71 (Ewing)): S (“S” means sensitive)
- Sensitivity Classification (H211; H211 (Melignant Pleural Mesothelioma)): R (“R” means resistant to the corresponding compounds.)
- IC50 (H211; Homo sapiens, NCI-H211, 72 h): 733 nM
- Sensitivity Classification (HTB-92; HTB-92 (Liposarcoma)): R (“R” means resistant to the corresponding compounds.)
- IC50 (HTB-92; Homo sapiens, 72 h): 1020 nM
- Sensitivity Classification (H2595; H2595 (Melignant Pleural Mesothelioma)): R (“R” means resistant to the corresponding compounds.)
- IC50 (H2595; Homo sapiens, NCI-H2595, 72 h): 4480 nM
- IC50 (ME; Homo sapiens, 72 h): 15 nM
- Sensitivity Classification (ME; ME (Rhabdomyosarcoma)): S (“S” means sensitive)

SMILES: CC[C@]1(O)C[C@H]2CN(CCc3c([nH]c4ccccc34)[C@@](C(=O)OC)(c3cc4c(cc3OC)N(C=O)[C@H]3[C@@](O)(C(=O)OC)[C@H](OC(C)=O)[C@]5(CC)C=CCN6CC[C@]43[C@@H]65)C2)C1 [vincristine]
- Combination Result [1]: Additive

SMILES: C#Cc1cccc(Nc2ncnc3cc(OCCOC)c(OCCOC)cc23)c1 [erlotinib]
- Combination Result [1]: synergistic effects; also recorded: Synergy

SMILES: CS(=O)(=O)CCNCc1ccc(-c2ccc3ncnc(Nc4ccc(OCc5cccc(F)c5)c(Cl)c4)c3c2)o1 [lapatinib]
- Combination Result [1]: synergistic effects; also recorded: Synergy

SMILES: COc1cc2ncnc(Nc3ccc(F)c(Cl)c3)c2cc1OCCCN1CCOCC1 [gefitnib]
- Combination Result [1]: synergistic effects; also recorded: Synergy

SMILES: N.N.[Cl][Pt][Cl] [cisplatin]
- Combination Result [1]: Additive
